From patent US20230416205A1, “COMPOUNDS, COMPOSITIONS, AND METHODS” (Denali Therapeutics Inc, priority 2020, published 2023) come the findings set out here.

Like-named read-outs stand apart in the source and are kept apart here. A value given as a limit tells only on which side of the number the result lay.

The test system of this test is NLRP3. The experiment in a line: IL-1β secretion assay in PMA-differentiated, LPS/nigericin-stimulated THP-1 cells (384-well, ELISA read-out). It is filed as cell-based, human. The method, then:
Compounds as provided herein were tested in the following assay. Cell culture medium employed contained RPMI 1640 medium (89%), FBS (10%), Pen/Strep (1%), and 2-mercaptoethanol (0.05 mM). Freezing medium was made up of 90% FBS and 10% DMSO. THP-1 cells were removed from the liquid nitrogen and placed into a 37° C. water bath to thaw, until signs of ice dissipated. The cells were then added to 9 mL of warm cell culture medium and centrifuged for 5 minutes at 1000 rpm. The supernatant was discarded, and the cells were resuspended in new cell culture medium. THP-1 cells were then split and cultured in the cell culture medium, being passaged every 2-3 days with the cell density will be maintained between 5×10^5 and 1.5×10^6 viable cells/mL.
To freeze, cells were resuspended with fresh freezing medium, adjusting the cell density to 5×10^6 cells/mL. The cell suspension was partitioned into 1 mL aliquots per vial, and the vials were transferred to a −80° C. freezer. After one day at −80° C., the cell vials were transferred to liquid nitrogen freezer for storage.
PMA was dissolved in DMSO to make a stock solution at 5 mg/mL and stored in 10 μl aliquots at −20° C. for single use. PMA is added to normal growth medium. LPS was diluted with 1 mL of water solution to provide a 1 mg/mL stock solution and stored in 15 μl aliquots at −20° C. for single use. Nigericin is diluted in ice cold 100% ethanol to 5 mg/mL (6.7 mM) and stored in 75 μL aliquots at −20° C. for single use. Serum-free media contains RPMI 1640 medium (99%), Pen/Strep (1%), and 2-mercaptoethanol (0.05 mM). The two control conditions used to qualify and normalize test compound dose-response curves were as follows: High Control=25 ng/mL LPS, 5 μM Nigericin, 0.5% DMSO, Low Control=25 ng/mL, LPS, 0.5% DMSO.
THP-1 cells were diluted to provide a suspension at a concentration of 1.0×10^6 cells/mL with the total volume of suspension required to enable the desired number of assay plates. The growth media was supplemented with PMA (5 ng/mL final concentration) and the cells were incubated at 37° C. under a humidified atmosphere of 5% CO2 for 40 h.
All media was carefully aspirated from each culture flask. The cells were washed carefully with 1×DPBS. The cells were then briefly digested with trypsin LE for 5 minutes at 23° C., and immediately resuspended in cell growth media. After resuspension, the cells were centrifuged at 1000 rpm for 3 minutes and the supernatant was discarded. The cells were resuspended in DPBS and once again centrifuged at 1000 rpm for 5 minutes. The supernatant was discarded and the cell pellet was resuspended in serum-free media supplemented with LPS (25 ng/mL final concentration) to enable the distribution of 30K THP-1 cells within 45 μL of media into each well of 384-well PDL-coated plates. The 384-well plates were then incubated at 37° C. under a humidified atmosphere of 5% CO2 for 2 h. Following this period, test compounds were dispensed by Tecan across the desired concentration range with all wells normalized to a final 0.5% DMSO concentration. The plates were then incubated at 37° C. under a humidified atmosphere of 5% CO2 for 1 h. Following this period, 5 μL of the […] was added to each of the appropriate wells and plates were centrifuged at 1000 rpm for 30 seconds. The plates were the immediately reintroduced to the incubator at 37° C. under a humidified atmosphere of 5% CO2 for 2 h. After this time, 35 μL/well of supernatant was collected and transferred into v-bottom plate and centrifuged at 1000 rpm for 1 minute. These supernatant aliquots were analyzed using an IL-Iβ detection kit as described below. If needed, the test samples could be snap frozen and stored at −80° C. until analyzed.
To prepare each ELISA plate, capture antibody (mAb Mt175) was diluted with PBS to a final concentration of 2 μg/mL and then 20 μL of this solution was added to each well of the ELISA plate. Each plate was allowed to incubate overnight at 4° C.

[1] abbreviates: Homo sapiens, THP-1, IL-1β secretion, PMA-differentiated THP-1 cells, LPS then nigericin stimulation, ELISA read at 450 nm, read-out: Activity.
Where [2] appears, read: Homo sapiens, THP-1, Table 4, IL-1β secretion, LPS/nigericin-stimulated THP-1 cells, read-out: IC50.
The mark [3] stands for this setting: Table 4, IL-1β secretion, LPS/nigericin-stimulated THP-1 cells, read-out: IC50.
Where [4] appears, read: IL-1β secretion, PMA-differentiated THP-1 cells, LPS then nigericin stimulation, ELISA read at 450 nm, read-out: Activity.

On to `O=C(CN1C[C@@]2(C[C@H]2F)c2cc(Br)ccc2C1=O)Nc1ncc(F)cn1` (mixture of isomers) [Example 80, 2-[(2′r,4r)-6-bromo-2′-fluoro-1-oxospiro[3H-isoquinoline-4,1′-cyclopropane]-2-yl]-N-(5-fluoropyrimidin-2-yl)acetamide], for which the IC50 is less than 10000 nM under setting [1] and 1060 nM under setting [2].

Regarding `O=C(CN1C[C@@]2(C[C@@H]2F)c2cc(Br)cc(F)c2C1=O)Nc1ncc(F)cn1` (mixture of isomers) [Example 285, 2-[(2′s,4r)-6-bromo-2′,8-difluoro-1-oxospiro[3H-isoquinoline-4,1′-cyclopropane]-2-yl]-N-(5-fluoropyrimidin-2-yl)acetamide], the IC50 under setting [1] is less than 10000 nM and the IC50 under setting [2] was determined as 165 nM.

`O=C(CN1C[C@@]2(C[C@@H]2F)c2cc(Br)ccc2C1=O)Nc1ncc(F)cn1` (single isomer, unassigned) [Example 78]: the IC50 runs as follows: under setting [1], less than 10000 nM; under setting [2], 208 nM.

For `O=C(CN1C[C@@]2(C[C@@H]2F)c2c(ccc(Br)c2F)C1=O)Nc1ncc(F)cn1` (single isomer, unassigned) [Example 220, 2-[(2′s,4r)-6-bromo-2′,5-difluoro-1-oxospiro[3H-isoquinoline-4,1′-cyclopropane]-2-yl]-N-(5-fluoropyrimidin-2-yl)acetamide], the IC50 runs as follows: under setting [1], less than 10000 nM; under setting [2], 20 nM.

`N#Cc1cnc(NC(=O)CN2C[C@@]3(C[C@@H]3F)c3c(ccc(Br)c3F)C2=O)nc1` (single isomer, unassigned) [Example 221, 2-[(2′s,4r)-6-bromo-2′,5-difluoro-1-oxospiro[3H-isoquinoline-4,1′-cyclopropane]-2-yl]-N-(5-cyanopyrimidin-2-yl)acetamide]: the IC50 runs as follows: under setting [1], less than 10000 nM; under setting [2], 14 nM.

As to `O=C(CN1C[C@@]2(C[C@@H]2F)c2c(ccc(Br)c2F)C1=O)Nc1ncc(Cl)cn1` (single isomer, unassigned) [Example 222, 2-[(2′s,4r)-6-bromo-2′,5-difluoro-1-oxospiro[3H-isoquinoline-4,1′-cyclopropane]-2-yl]-N-(5-chloropyrimidin-2-yl)acetamide], the IC50 is, setting by setting: under setting [1], less than 10000 nM; under setting [2], 11 nM.

Regarding `O=C(CN1C[C@@]2(C[C@@H]2F)c2c(ccc(Cl)c2F)C1=O)Nc1ncc(F)cn1` (single isomer, unassigned) [Example 223, 2-[(2′s,4r)-6-chloro-2′,5-difluoro-1-oxospiro[3H-isoquinoline-4,1′-cyclopropane]-2-yl]-N-(5-fluoropyrimidin-2-yl)acetamide], the IC50 is, setting by setting: under setting [1], less than 10000 nM; under setting [2], 55 nM.

As for `O=C(CN1C[C@@]2(C[C@@H]2F)c2c(ccc(Br)c2F)C1=O)Nc1ncccn1` (single isomer, unassigned) [Example 224, 2-[(2′s,4r)-6-bromo-2′,5-difluoro-1-oxospiro[3H-isoquinoline-4,1′-cyclopropane]-2-yl]-N-pyrimidin-2-ylacetamide], the IC50 is less than 10000 nM under setting [1] and 49 nM under setting [2].

In the case of `Cc1cnc(NC(=O)CN2C[C@@]3(C[C@@H]3F)c3c(ccc(Br)c3F)C2=O)nc1` (single isomer, unassigned) [Example 225, 2-[(2′s,4r)-6-bromo-2′,5-difluoro-1-oxospiro[3H-isoquinoline-4,1′-cyclopropane]-2-yl]-N-(5-methylpyrimidin-2-yl)acetamide], the IC50 under setting [1] is less than 10000 nM and the IC50 under setting [2] came to 19 nM.

With `O=C(CN1C[C@@]2(C[C@@H]2F)c2c(ccc(Br)c2F)C1=O)Nc1ncc(C(F)(F)F)cn1` (single isomer, unassigned) [Example 226, 2-[(2′s,4r)-6-bromo-2′,5-difluoro-1-oxospiro[3H-isoquinoline-4,1′-cyclopropane]-2-yl]-N-[5-(trifluoromethyl)pyrimidin-2-yl]acetamide], the IC50 by setting is: under setting [1], less than 10000 nM; under setting [2], 31 nM.

Turning to `O=C(CN1C[C@]2(C[C@H]2F)c2c(ccc(Br)c2F)C1=O)Nc1ncccn1` (single isomer, unassigned) [Example 227, 2-[(2′s,4r)-6-bromo-2′,5-difluoro-1-oxospiro[3H-isoquinoline-4,1′-cyclopropane]-2-yl]-N-pyrimidin-2-ylacetamide], the IC50 by setting is: under setting [1], less than 10000 nM; under setting [2], 127 nM.

With `O=C(CN1C[C@@]2(C[C@@H]2F)c2c(ccc(C3CC3)c2F)C1=O)Nc1ncc(F)cn1` (single isomer, unassigned) [Example 228, 2-[(2′s,4r)-6-cyclopropyl-2′,5-difluoro-1-oxospiro[3H-isoquinoline-4,1′-cyclopropane]-2-yl]-N-(5-fluoropyrimidin-2-yl)acetamide], the IC50 is less than 10000 nM under setting [1] and 21 nM under setting [2].

Consider `O=C(CN1C[C@@]2(C[C@@H]2F)c2c(ccc(C3CC3)c2F)C1=O)Nc1ncc(Cl)cn1` (single isomer, unassigned) [Example 229, 2-[(2′s,4r)-6-cyclopropyl-2′,5-difluoro-1-oxospiro[3H-isoquinoline-4,1′-cyclopropane]-2-yl]-N-(5-chloropyrimidin-2-yl)acetamide], for which the IC50 reads like this: under setting [1], less than 10000 nM; under setting [2], 32 nM.

With `O=C(CN1C[C@@]2(C[C@@H]2F)c2cc(C(F)(F)F)ccc2C1=O)Nc1ncc(F)cn1` (single isomer, unassigned) [Example 234, 2-[(2′s,4r)-2′-fluoro-1-oxo-6-(trifluoromethyl)spiro[3H-isoquinoline-4,1′-cyclopropane]-2-yl]-N-(5-fluoropyrimidin-2-yl)acetamide], the IC50 under setting [1] is less than 10000 nM and the IC50 under setting [3] is 78 nM.

Turning to `O=C(CN1C[C@@]2(C[C@@H]2F)c2cc(C(F)(F)F)ccc2C1=O)Nc1ncc(F)cn1` (single isomer, unassigned) [Example 235, 2-[(2′s,4r)-2′-fluoro-1-oxo-6-(trifluoromethyl)spiro[3H-isoquinoline-4,1′-cyclopropane]-2-yl]-N-(5-fluoropyrimidin-2-yl)acetamide], the IC50 was less than 10000 nM under setting [4] and 850 nM under setting [3].

Regarding `N#Cc1cnc(NC(=O)CN2C[C@@]3(C[C@@H]3F)c3cc(C(F)(F)F)ccc3C2=O)nc1` (single isomer, unassigned) [Example 236, N-(5-cyanopyrimidin-2-yl)-2-[(2′s,4r)-2′-fluoro-1-oxo-6-(trifluoromethyl)spiro[3H-isoquinoline-4,1′-cyclopropane]-2-yl]acetamide], the IC50 is less than 10000 nM under setting [1] and 1120 nM under setting [3].

Regarding `N#Cc1cnc(NC(=O)CN2C[C@@]3(C[C@@H]3F)c3cc(C(F)(F)F)ccc3C2=O)nc1` (single isomer, unassigned) [Example 237, N-(5-cyanopyrimidin-2-yl)-2-[(2′s,4r)-2′-fluoro-1-oxo-6-(trifluoromethyl)spiro[3H-isoquinoline-4,1′-cyclopropane]-2-yl]acetamide], the IC50 under setting [4] was less than 10000 nM and the IC50 under setting [3] worked out at 61 nM.

`O=C(CN1C[C@@]2(C[C@@H]2F)c2cc(C(F)(F)F)ccc2C1=O)Nc1ncc(Cl)cn1` (single isomer, unassigned) [Example 238, N-(5-chloropyrimidin-2-yl)-2-[(2′s,4r)-2′-fluoro-1-oxo-6-(trifluoromethyl)spiro[3H-isoquinoline-4,1′-cyclopropane]-2-yl]acetamide]: the IC50 reads like this: under setting [1], less than 10000 nM; under setting [3], 414 nM.
